Assays:
[1] = tested on: pleural or peritoneal BAP1 loss mesothelioma; assay: human clinical phase 2 study, Compound 1 monotherapy, response by cancer cohort; format: in vivo; details: intermediate cut-off date
Experimental: As part of a human clinical phase 2 study, subjects with pleural or peritoneal BAP1 loss mesothelioma were administered 350 mg/day Compound 1 for up to about 7.5 months (FIG. 1). Compound 1 was administered orally as a single agent (monotherapy). The cancers in each subject were known to have BAP1 mutations as determined by next generation sequencing (NGS) or local immunohistochemistry (IHC) testing prior to treatment. A complete response is characterized as disappearance of all lesions, a partial response is characterized as at least a 30% decrease in the sum of the longest diameter (LD) of target lesions, taking as reference the baseline sum LD; stable disease is characterized as neither sufficient shrinkage to qualify for partial response nor sufficient increase to qualify for progressive disease, taking as reference the smallest sum diameters; and progressive disease is characterized as at least a 20% increase in the sum of the LD of target lesions, taking as reference the smallest sum LD recorded since the treatment started or the appearance of one or more new lesions.

[2] = tested on: MSTO-211H; assay: CellTiter-Glo 2.0 long-term cell viability assay; format: cell-based; details: Homo sapiens, BAP1 wildtype
Experimental: (§1) The ability of Compound 1 to selectivity suppress mesothelioma cancer cell viability was assessed in a panel of cell lines after 7, 14 and 21 days of treatment with Compound 1. Cell viability was determined using CellTiter-Glo®2 luminescent cell viability assay.
(§2) Cell culture conditions. MSTO-211H, H2052, H2452, H28, H226 cell lines were obtained from ATCC (Manassas, VA) and were grown in media as recommended by the vendor. For long-term assays, cells were plated in 96-well plates containing. Compound 1. Cell lines were treated with a dose titration of Compound 1 starting at 2 μM top concentration.
(§3) Cellular assay—assessment of cell viability. Relative cell numbers were assessed by CellTiter-Glo® 2.0 luminescent cell viability assay (Promega Catalog #G9243) using a Perkin Elmer EnVision Alpha Reader (Model #2104, Waltham, MA). 50 μL of CellTiter-Glo® 2.0 reagent was added to each well containing 100 μL cell suspension and incubated for 30 min at RT with shaking at low speed. GraphPad Prism was used for curve fitting and GI50 determinations.

[3] = tested on: H28; assay: CellTiter-Glo 2.0 long-term cell viability assay; format: cell-based; details: Homo sapiens, H28, BAP1 mutant
Experimental: as §1, §2, §3

[4] = tested on: H2052; assay: CellTiter-Glo 2.0 long-term cell viability assay; format: cell-based; details: Homo sapiens, H2052, BAP1 wildtype
Experimental: as §1, §2, §3

[5] = tested on: H2452; assay: CellTiter-Glo 2.0 long-term cell viability assay; format: cell-based; details: Homo sapiens, H2452, BAP1 mutant
Experimental: as §1, §2, §3

[6] = tested on: H226; assay: CellTiter-Glo 2.0 long-term cell viability assay; format: cell-based; details: Homo sapiens, H226, BAP1 mutant
Experimental: as §1, §2, §3

[7] = tested on: pleural mesothelioma PDX models with BAP1 alterations; assay: panel of 6 PDX models of pleural mesothelioma with BAP1 alterations; format: in vivo, mice; details: 75 mg/kg p.o. QD
Experimental: (§4) Compound 1 was evaluated in 6 patient-derived xenograft (PDX) models of pleural mesothelioma with BAP1 alterations (Table 3) implanted subcutaneously in immunodeficient mice (NSG mice in the case of tumor model PXF 2328, NMRI nu/nu mice for all other tumor models). Each experiment had two groups of generally five mice each enrolled at tumor volumes in the range of 53.9-198.9 mm^3. The first group was a vehicle control group, while the second group was treated with Compound 1, administered orally (p.o.) once daily (QD) at a dose level of 75 mg/kg. The duration of the experiments ranged between 30 and 65 days.
(§5) Antitumor efficacy of all groups was assessed using the vehicle control group as a reference. Tumor growth inhibition was determined by the comparison of tumor growth in the test groups with the vehicle control group and is expressed as the maximum tumor growth inhibition (TGI) value in percent. The statistical significance of differences between test and control groups was assessed using the non-parametric U-test.

[8] = tested on: PXF 537; assay: pleural mesothelioma PDX model, tumor growth inhibition; format: in vivo, NMRI nu/nu mice; details: PXF 537, 75 mg/kg p.o. QD; statistically significant reduction in tumor volume vs control
Experimental: as §4, §5

[9] = tested on: PXF 1118; assay: as above; format: in vivo, NMRI nu/nu mice; details: PXF 1118, 75 mg/kg p.o. QD; without a statistically significant reduction in tumor volume
Experimental: as §4, §5

[10] = tested on: PXF 680; assay: as above; format: in vivo, NMRI nu/nu mice; details: PXF 680, 75 mg/kg p.o. QD; statistically significant reduction in tumor volume vs vehicle (U-test)
Experimental: as §4, §5

[11] = tested on: PXF 541; assay: as above; format: in vivo, NMRI nu/nu mice; details: PXF 541, 75 mg/kg p.o. QD; statistically significant reduction in tumor volume vs vehicle (U-test)
Experimental: as §4, §5

[12] = tested on: PXF 2443; assay: as above; format: in vivo, NMRI nu/nu mice; details: PXF 2443, 75 mg/kg p.o. QD; without a statistically significant reduction in tumor volume
Experimental: as §4, §5

[13] = tested on: PXF 2328; assay: as above; format: in vivo; details: PXF 2328 implanted in NSG mice, 75 mg/kg p.o. QD
Experimental: as §4, §5

[14] = 350 mg/day oral monotherapy, efficacy evaluable patients N = 9

SMILES: COC1CN([C@H]2CC[C@H]([C@@]3(C)Oc4c(Cl)cc(C(=O)NCc5c(SC)cc(C)[nH]c5=O)c(C)c4O3)CC2)C1 [Compound 1, (R)-7-chloro-2-((1r,4R)-4-(3-methoxyazetidin-1-yl)cyclohexyl)-2,4-dimethyl-N-((6-methyl-4-(methylthio)-2-oxo-1,2-dihydropyridin-3-yl)methyl)benzo[d][1,3]dioxole-5-carboxamide]
- Complete response [1, 14]: 0 n (%)
- Partial response [1, 14]: 2 (22.2) n (%)
- Progressive disease [1, 14]: 3 (33.3) n (%)
- Stable disease [1, 14]: 4 (44.4) n (%)
- patients showing (partial) response and stable disease [1]: > 60%
- GI50 ([2]; 168 h, Day 7): > 2000 nM
- GI50 ([2]; 336 h, Day 14): > 2000 nM
- GI50 ([2]; 504 h, Day 21): > 2000 nM
- GI50 ([3]; NCI-H28, 168 h, Day 7): > 2000 nM
- GI50 ([3]; NCI-H28, 336 h, Day 14): 234 nM
- GI50 ([3]; NCI-H28, 504 h, Day 21): 45 nM
- GI50 ([4]; NCI-H2052, 168 h, Day 7): > 2000 nM
- GI50 ([4]; NCI-H2052, 336 h, Day 14): > 2000 nM
- GI50 ([4]; NCI-H2052, 504 h, Day 21): > 2000 nM
- GI50 ([5]; NCI-H2452, 168 h, Day 7): > 2000 nM
- GI50 ([5]; NCI-H2452, 336 h, Day 14): 6 nM
- GI50 ([5]; NCI-H2452, 504 h, Day 21): 5 nM
- GI50 ([6]; NCI-H226, 168 h, Day 7): > 2000 nM
- GI50 ([6]; NCI-H226, 336 h, Day 14): > 2000 nM
- GI50 ([6]; NCI-H226, 504 h, Day 21): > 2000 nM
- PDX models with a relevant TGI of greater than 50% [7]: 4 out of the 6
- effect on tumor growth [8]: almost stasis
- effect on tumor growth [9]: slowed growth
- maximum tumor growth inhibition (TGI) [10]: > 100%
- maximum tumor growth inhibition (TGI) [11]: > 100%
- effect on tumor growth [12]: slowed growth
- effect on tumor growth [13]: inactive

— patent US20260137668A1, “EZH2 INHIBITION THERAPIES FOR THE TREATMENT OF BRCA1-ASSOCIATED PROTEIN (BAP1) MUTATED CANCERS” (Constellation Pharmaceuticals, Inc., priority 2022, published 2026)
